Assay results reported in ChEMBL document CHEMBL1944529, “Structure-based design, synthesis and structure-activity relationships of dibenzosuberyl- and benzoate-substituted tropines as ligands for acetylcholine-binding protein” (Bioorg Med Chem Lett, 2012).

Assays:
[1] = target: Neuronal acetylcholine receptor; alpha4/beta2 (Homo sapiens, UniProt P17787+P43681); assay: Displacement of [3H]epibatidine from human nAChR alpha4beta2 receptor expressed in human HEK293T cells by scintillation counting; assay type: cell-based, HEK-293T
Neuronal acetylcholine receptor; alpha4/beta2, sequence (P17787 whole entry): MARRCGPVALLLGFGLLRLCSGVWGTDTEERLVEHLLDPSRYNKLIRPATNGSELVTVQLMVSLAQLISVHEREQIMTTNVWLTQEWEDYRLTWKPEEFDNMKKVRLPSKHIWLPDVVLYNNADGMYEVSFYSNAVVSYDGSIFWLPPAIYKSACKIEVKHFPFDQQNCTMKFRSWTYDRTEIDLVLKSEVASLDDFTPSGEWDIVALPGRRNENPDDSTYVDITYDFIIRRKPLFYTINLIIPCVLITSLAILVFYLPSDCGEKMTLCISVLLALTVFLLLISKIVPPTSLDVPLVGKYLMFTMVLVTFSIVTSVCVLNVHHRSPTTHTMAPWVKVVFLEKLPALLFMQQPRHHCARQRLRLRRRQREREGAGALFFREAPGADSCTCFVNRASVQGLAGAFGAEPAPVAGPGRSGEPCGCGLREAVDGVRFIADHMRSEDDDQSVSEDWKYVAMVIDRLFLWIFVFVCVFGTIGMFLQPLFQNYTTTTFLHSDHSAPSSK
Neuronal acetylcholine receptor; alpha4/beta2, sequence (P43681 whole entry): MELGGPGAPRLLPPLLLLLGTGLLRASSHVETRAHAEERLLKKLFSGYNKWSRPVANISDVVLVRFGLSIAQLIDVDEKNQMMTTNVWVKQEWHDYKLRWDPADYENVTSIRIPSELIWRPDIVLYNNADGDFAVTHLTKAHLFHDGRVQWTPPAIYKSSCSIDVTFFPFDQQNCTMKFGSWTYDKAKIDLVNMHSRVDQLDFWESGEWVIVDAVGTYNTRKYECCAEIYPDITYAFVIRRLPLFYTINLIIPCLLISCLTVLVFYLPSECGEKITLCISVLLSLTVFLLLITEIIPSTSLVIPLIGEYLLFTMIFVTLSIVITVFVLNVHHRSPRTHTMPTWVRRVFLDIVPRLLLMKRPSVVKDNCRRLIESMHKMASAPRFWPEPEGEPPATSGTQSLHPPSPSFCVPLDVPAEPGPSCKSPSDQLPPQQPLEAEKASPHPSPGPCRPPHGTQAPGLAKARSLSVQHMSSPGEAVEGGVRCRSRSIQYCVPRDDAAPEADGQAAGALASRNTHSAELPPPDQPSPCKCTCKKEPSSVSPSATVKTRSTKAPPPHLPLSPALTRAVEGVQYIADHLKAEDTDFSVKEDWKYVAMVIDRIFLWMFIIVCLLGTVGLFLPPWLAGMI

[2] = target: Neuronal acetylcholine receptor subunit alpha-7 (Homo sapiens, UniProt P36544); assay: Displacement of [3H]MLA from nAChR alpha7 receptor in human SH-SY5Y cells by scintillation counting; assay type: cell-based
Neuronal acetylcholine receptor subunit alpha-7, sequence (P36544 whole entry): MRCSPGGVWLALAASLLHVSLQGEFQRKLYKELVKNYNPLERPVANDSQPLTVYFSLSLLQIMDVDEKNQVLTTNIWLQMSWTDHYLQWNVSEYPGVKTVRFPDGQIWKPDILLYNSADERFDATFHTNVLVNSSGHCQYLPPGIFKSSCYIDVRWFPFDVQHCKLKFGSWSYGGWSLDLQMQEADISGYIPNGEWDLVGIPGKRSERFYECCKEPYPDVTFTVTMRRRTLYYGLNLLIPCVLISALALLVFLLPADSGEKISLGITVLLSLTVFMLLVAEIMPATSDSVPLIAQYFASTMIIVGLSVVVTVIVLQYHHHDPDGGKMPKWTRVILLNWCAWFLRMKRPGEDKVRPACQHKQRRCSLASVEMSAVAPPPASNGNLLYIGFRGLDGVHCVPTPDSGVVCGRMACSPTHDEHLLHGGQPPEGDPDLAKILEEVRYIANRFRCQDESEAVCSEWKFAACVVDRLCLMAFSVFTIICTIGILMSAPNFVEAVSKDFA

[3] = target: Acetylcholine-binding protein (Lymnaea stagnalis, UniProt P58154); assay: Displacement of [3H]epibatidine from Lymnaea stagnalis acetylcholine binding protein expressed using baculoviral system after 1.5 hrs by scintillation counting
Acetylcholine-binding protein, sequence (P58154 whole entry): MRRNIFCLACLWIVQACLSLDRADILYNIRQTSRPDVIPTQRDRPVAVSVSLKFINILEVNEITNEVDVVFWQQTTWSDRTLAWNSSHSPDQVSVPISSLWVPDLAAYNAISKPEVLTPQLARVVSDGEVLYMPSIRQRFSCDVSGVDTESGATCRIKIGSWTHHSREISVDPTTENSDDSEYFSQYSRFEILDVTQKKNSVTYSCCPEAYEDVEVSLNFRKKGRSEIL

[4] = target: T1, Soluble acetylcholine receptor (Aplysia californica, UniProt Q8WSF8); assay: Displacement of [3H]epibatidine from Aplysia californica acetylcholine binding protein expressed using baculoviral system after 1.5 hrs by scintillation counting
T1 sequence (Q8WSF8 whole entry): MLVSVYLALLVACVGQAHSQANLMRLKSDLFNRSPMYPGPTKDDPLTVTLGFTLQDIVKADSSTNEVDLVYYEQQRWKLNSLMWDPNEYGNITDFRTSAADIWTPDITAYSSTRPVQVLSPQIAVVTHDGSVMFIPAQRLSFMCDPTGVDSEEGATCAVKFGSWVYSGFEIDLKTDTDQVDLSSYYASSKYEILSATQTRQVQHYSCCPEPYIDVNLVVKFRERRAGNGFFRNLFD

| SMILES | Ki [1] | Ki [2] | Ki [3] | Ki [4] |
| --- | --- | --- | --- | --- |
| C[N+]1(CCc2ccccc2)[C@@H]2CC[C@H]1C[C@@H](OC1c3ccccc3CCc3ccccc31)C2 (stereo partly drawn) | > 31.6 µM | 1.58 µM | 39.8 nM | 631 nM |
| O=C(O[C@@H]1C[C@H]2CC[C@@H](C1)N2CC(O)c1cc(O)cc(O)c1)c1ccccc1 (stereo partly drawn) | > 31.6 µM | 12.6 µM | 2000 nM | 20000 nM |
| O=C(O[C@H]1C[C@H]2CC[C@@H](C1)N2C[C@H](O)c1ccccc1)c1ccccc1 |  |  | 794 nM | 100 nM |
| O=C(O[C@H]1C[C@H]2CC[C@@H](C1)N2CC(O)c1cccc(O)c1)c1ccccc1 (stereo partly drawn) | > 31.6 µM | 25.1 µM | 794 nM | 631 nM |
| c1ccc(CCN2[C@@H]3CC[C@H]2C[C@@H](OC2c4ccccc4CCc4ccccc42)C3)cc1 | > 31.6 µM | 12.6 µM | 100 nM | 10000 nM |
| CN1[C@@H]2CC[C@H]1C[C@H](OC(=O)c1ccccc1)C2 |  |  | 6310 nM | 15800 nM |
| C[N+]1(CCc2ccccc2)[C@@H]2CC[C@H]1C[C@@H](OC(=O)c1ccccc1)C2 (stereo partly drawn) | > 31.6 µM | 6.31 µM | 31.6 nM | 158 nM |
| CN1[C@@H](CC(=O)c2ccccc2)CCC[C@H]1C[C@H](O)c1ccccc1 [LOBELINE] |  | 7.94 µM |  | 2.51 nM |
| c1ccc2c(c1)CCc1ccccc1C2O[C@H]1C[C@H]2CC[C@@H](C1)N2 |  |  | 1000 nM | 10000 nM |
| O=C(O[C@H]1C[C@H]2CC[C@@H](C1)N2CCc1cccc(O)c1)c1ccccc1 | > 31.6 µM | 12.6 µM | 100 nM | 200 nM |
| C[N+]1(C)[C@@H]2CC[C@H]1C[C@@H](OC1c3ccccc3CCc3ccccc31)C2 | > 31.6 µM | 1 µM | 316 nM | 1000 nM |
| O=C(O[C@H]1C[C@H]2CC[C@@H](C1)N2)c1ccccc1 | > 31.6 µM | 3.16 µM | 794 nM | 5010 nM |
| Oc1cccc(C(O)CN2[C@@H]3CC[C@H]2C[C@@H](OC2c4ccccc4CCc4ccccc42)C3)c1 (mixture of isomers) | > 31.6 µM | 39.8 µM | 2000 nM | 31600 nM |
| OC(CN1[C@@H]2CC[C@H]1C[C@@H](OC1c3ccccc3CCc3ccccc31)C2)c1ccccc1 (mixture of isomers) | > 31.6 µM | 20 µM | 2000 nM | 12600 nM |
| CN1[C@@H]2CC[C@H]1C[C@@H](OC(=O)c1ccccc1)C2 [BENZOYL TROPINE] | > 31.6 µM | 15.8 µM | 2000 nM | 3980 nM |
| O=C(O[C@H]1C[C@H]2CC[C@@H](C1)N2CC(O)c1ccccc1)c1ccccc1 (mixture of isomers) | > 31.6 µM | 12.6 µM | 631 nM | 158 nM |
| O=C(O[C@H]1C[C@H]2CC[C@@H](C1)N2CC(O)c1cc(O)cc(O)c1)c1ccccc1 (stereo partly drawn) | > 31.6 µM | 15.8 µM | 398 nM | 7940 nM |
| O=C(O[C@H]1C[C@H]2CC[C@@H](C1)N2CCc1ccccc1)c1ccccc1 | > 31.6 µM | 7.94 µM | 79.4 nM | 31.6 nM |
| c1ccc(CN2[C@@H]3CC[C@H]2C[C@@H](OC2c4ccccc4CCc4ccccc42)C3)cc1 |  |  | 251 nM | 10000 nM |
| O=C(O[C@H]1C[C@H]2CC[C@@H](C1)N2C[C@@H](O)c1ccccc1)c1ccccc1 |  |  | 1260 nM | 794 nM |
| O=C(O[C@@H]1C[C@H]2CC[C@@H](C1)N2)c1ccccc1 |  |  | 7940 nM | 15800 nM |
| CN1[C@@H]2CC[C@H]1C[C@@H](OC1c3ccccc3CCc3ccccc31)C2 [DEPTROPINE] |  |  | 2000 nM | 6310 nM |
| C[N+]1(C[C@H](O)c2ccccc2)[C@@H]2CC[C@H]1C[C@@H](OC(=O)c1ccccc1)C2 (stereo partly drawn) |  |  | 126 nM | 794 nM |
| O=C(O[C@@H]1C[C@H]2CC[C@@H](C1)N2CCc1ccccc1)c1ccccc1 | > 31.6 µM | 5.01 µM | 398 nM | 1000 nM |
| C[N+]1(CC(O)c2ccccc2)[C@@H]2CC[C@H]1C[C@@H](OC(=O)c1ccccc1)C2 (stereo partly drawn) | > 31.6 µM | 10 µM | 126 nM | 2000 nM |
| CN1CCC[C@H]1c1cccnc1 [NICOTINE] |  |  |  | 2510 nM |
